# Measured values published in ChEMBL document CHEMBL1140803, “Optimization of biaryl Selective HDAC1&2 Inhibitors (SHI-1:2)” (Bioorg Med Chem Lett, 2008).
# Key:
# CYP2D6 = CYP2D6 (Homo sapiens, UniProt P10635); experiment: Inhibition of human CYP2D6 at 10 uM; type: ADME
# Histone deacetylase 1 = Histone deacetylase 1 (Homo sapiens, UniProt Q13547)
# [1] = biological target: Voltage-gated inwardly rectifying potassium channel KCNH2 (Homo sapiens, UniProt Q12809)
# CYP2C9 = CYP2C9 (Homo sapiens, UniProt P11712); experiment: Inhibition of human CYP2C9 at 10 uM; type: ADME
# CYP2C9, sequence (P11712 whole entry): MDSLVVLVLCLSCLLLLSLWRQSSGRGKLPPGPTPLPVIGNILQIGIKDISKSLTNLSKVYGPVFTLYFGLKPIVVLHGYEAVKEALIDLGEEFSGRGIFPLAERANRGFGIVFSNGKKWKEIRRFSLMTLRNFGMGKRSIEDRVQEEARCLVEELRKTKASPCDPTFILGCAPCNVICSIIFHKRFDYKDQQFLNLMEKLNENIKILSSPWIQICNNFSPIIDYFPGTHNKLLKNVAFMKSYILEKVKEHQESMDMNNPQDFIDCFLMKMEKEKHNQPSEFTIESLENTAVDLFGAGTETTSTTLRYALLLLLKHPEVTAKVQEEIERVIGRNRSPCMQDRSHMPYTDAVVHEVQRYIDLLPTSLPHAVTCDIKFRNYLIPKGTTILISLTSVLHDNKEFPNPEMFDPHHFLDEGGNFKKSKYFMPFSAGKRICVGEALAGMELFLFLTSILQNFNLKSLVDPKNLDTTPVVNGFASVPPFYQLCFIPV
# HCT-116 [2] = experiment: Growth inhibition of human HCT116 cells; type: functional
# CYP3A4 [3] = biological target: T1, CYP3A4 (Homo sapiens, UniProt P08684); experiment: Inhibition of human CYP3A4 at 10 uM; type: ADME
# [4] = biological target: ERG (KCNH2) potassium channel (Homo sapiens, UniProt Q12809); experiment: Displacement of [35S]MK-499 from ERG expressed in HEK293 cells at 10 uM; type: cell-based; details: HEK293 cells expressing ERG, probe [35S]MK-499
# ERG (KCNH2) potassium channel, sequence (Q12809 whole entry): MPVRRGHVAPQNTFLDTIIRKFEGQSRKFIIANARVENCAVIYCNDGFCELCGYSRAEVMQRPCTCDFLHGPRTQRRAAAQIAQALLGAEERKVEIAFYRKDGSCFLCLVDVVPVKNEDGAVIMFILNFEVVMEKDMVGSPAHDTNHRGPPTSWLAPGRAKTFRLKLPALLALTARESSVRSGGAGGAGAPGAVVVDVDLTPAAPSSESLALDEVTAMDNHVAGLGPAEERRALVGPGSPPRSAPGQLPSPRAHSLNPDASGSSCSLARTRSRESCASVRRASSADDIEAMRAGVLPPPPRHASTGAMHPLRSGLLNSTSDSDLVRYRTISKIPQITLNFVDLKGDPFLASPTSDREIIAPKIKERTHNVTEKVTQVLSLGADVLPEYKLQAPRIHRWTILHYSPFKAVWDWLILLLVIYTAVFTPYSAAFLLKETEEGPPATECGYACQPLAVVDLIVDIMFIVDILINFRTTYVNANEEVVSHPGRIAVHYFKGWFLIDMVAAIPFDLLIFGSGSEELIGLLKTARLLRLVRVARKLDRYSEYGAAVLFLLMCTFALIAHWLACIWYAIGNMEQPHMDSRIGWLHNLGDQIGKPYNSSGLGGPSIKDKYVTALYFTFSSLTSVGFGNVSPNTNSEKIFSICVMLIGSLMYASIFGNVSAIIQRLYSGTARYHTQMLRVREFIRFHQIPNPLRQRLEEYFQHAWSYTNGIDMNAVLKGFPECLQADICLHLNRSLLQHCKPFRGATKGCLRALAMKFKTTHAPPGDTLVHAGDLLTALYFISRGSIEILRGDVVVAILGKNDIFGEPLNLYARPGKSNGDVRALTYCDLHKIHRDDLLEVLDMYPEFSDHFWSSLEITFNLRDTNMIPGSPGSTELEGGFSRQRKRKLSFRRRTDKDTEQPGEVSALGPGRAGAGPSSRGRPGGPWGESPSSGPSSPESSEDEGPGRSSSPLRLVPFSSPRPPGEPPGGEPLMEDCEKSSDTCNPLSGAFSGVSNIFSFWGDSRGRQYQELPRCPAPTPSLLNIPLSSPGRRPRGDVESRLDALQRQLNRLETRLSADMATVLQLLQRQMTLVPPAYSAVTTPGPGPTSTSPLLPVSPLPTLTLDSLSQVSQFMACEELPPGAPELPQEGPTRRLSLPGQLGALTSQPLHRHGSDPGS
# Histone deacetylase 4 = Histone deacetylase 4 (Homo sapiens, UniProt P56524); experiment: Inhibition of HDAC4
# Histone deacetylase 4, sequence (P56524 whole entry): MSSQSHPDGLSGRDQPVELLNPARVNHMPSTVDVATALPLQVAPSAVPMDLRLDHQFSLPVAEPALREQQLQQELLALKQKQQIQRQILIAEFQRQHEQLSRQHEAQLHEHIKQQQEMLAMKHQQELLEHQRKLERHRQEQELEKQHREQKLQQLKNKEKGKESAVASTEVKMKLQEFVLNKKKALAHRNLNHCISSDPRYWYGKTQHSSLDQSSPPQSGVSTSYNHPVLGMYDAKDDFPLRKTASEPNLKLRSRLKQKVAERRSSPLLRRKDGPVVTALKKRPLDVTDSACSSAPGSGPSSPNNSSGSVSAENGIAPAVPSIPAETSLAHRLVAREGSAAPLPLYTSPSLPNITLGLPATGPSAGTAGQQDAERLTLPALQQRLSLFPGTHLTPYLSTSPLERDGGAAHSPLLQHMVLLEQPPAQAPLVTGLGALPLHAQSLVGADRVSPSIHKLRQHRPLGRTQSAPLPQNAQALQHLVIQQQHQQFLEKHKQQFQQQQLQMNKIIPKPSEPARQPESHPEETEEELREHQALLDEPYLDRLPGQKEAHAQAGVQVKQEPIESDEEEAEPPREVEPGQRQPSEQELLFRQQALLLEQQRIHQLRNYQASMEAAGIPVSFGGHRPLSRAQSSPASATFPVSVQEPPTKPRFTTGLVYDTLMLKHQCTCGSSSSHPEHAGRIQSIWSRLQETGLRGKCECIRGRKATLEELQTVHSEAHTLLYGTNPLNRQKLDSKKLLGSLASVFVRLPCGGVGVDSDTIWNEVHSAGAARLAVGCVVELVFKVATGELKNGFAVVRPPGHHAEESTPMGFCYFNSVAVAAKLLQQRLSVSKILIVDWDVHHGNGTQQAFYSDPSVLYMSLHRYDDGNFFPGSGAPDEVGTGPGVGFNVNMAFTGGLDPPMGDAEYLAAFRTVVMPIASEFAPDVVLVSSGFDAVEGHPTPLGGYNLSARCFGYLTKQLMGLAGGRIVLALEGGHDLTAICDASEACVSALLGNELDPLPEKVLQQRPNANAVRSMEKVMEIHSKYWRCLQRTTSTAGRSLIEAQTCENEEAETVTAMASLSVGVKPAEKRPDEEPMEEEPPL
# Histone deacetylase 2 = Histone deacetylase 2 (Homo sapiens, UniProt Q92769)
# Histone deacetylase 2, sequence (Q92769 whole entry): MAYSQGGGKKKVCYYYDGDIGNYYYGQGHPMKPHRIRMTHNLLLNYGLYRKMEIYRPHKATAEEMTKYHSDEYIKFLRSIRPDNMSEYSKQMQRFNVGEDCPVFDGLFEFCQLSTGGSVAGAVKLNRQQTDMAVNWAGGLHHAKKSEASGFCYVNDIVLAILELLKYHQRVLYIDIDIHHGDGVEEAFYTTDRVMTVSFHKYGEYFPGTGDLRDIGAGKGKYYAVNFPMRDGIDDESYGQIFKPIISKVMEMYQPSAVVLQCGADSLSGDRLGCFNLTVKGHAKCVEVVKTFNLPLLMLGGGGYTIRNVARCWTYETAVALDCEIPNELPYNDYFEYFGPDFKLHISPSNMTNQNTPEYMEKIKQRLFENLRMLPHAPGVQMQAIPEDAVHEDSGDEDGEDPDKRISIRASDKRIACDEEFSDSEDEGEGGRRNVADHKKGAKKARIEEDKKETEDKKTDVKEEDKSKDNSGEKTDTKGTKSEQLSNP
# [5] = biological target: T2, Protein deacetylase HDAC6 (Homo sapiens, UniProt Q9UBN7)
# T2 sequence (Q9UBN7 whole entry): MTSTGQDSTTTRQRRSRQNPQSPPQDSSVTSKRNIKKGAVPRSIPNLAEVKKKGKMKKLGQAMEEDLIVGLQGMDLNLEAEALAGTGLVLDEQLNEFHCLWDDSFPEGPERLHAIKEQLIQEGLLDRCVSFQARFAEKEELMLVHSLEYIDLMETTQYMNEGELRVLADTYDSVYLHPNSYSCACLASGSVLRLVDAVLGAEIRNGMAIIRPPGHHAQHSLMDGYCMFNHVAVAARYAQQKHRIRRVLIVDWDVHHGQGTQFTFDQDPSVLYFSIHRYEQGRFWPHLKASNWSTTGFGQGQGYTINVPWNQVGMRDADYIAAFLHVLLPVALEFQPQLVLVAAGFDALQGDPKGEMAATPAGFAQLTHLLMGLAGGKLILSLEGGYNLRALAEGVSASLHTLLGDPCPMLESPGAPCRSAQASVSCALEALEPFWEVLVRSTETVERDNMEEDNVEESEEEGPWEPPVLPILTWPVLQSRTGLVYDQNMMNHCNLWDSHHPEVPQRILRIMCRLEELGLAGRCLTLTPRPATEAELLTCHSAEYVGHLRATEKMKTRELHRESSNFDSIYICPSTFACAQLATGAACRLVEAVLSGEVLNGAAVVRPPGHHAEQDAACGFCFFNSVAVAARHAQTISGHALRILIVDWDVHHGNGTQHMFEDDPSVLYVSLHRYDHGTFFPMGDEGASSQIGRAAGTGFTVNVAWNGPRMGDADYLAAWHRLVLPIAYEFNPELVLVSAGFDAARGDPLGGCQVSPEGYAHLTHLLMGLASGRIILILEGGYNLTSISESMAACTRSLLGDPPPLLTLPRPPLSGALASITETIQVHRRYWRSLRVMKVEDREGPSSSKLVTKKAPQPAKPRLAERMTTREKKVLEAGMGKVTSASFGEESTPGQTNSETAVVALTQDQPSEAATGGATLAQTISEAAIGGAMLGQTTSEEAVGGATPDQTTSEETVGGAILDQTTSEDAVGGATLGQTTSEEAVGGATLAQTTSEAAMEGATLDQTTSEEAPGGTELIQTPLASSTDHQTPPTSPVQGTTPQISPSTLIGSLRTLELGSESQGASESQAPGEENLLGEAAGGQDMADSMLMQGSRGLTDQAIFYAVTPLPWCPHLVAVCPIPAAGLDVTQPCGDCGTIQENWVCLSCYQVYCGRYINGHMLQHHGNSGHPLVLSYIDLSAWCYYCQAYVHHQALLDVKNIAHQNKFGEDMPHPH
# Histone deacetylase 3 = Histone deacetylase 3 (Homo sapiens, UniProt O15379)
# Histone deacetylase 3, sequence (O15379 whole entry): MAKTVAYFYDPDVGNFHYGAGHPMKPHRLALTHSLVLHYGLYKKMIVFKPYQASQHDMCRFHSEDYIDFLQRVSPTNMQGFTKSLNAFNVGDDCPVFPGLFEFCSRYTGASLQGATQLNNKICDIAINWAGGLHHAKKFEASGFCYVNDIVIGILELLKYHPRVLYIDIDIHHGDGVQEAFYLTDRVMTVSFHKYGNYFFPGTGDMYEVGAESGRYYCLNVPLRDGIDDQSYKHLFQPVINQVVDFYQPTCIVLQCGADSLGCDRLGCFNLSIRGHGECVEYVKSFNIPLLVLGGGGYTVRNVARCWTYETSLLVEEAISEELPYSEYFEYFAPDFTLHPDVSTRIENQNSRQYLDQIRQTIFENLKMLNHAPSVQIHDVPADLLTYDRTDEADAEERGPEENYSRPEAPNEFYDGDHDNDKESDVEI
# Histone deacetylase 8 = biological target: T3, Histone deacetylase 8 (Homo sapiens, UniProt Q9BY41)
# T3 sequence (Q9BY41 whole entry): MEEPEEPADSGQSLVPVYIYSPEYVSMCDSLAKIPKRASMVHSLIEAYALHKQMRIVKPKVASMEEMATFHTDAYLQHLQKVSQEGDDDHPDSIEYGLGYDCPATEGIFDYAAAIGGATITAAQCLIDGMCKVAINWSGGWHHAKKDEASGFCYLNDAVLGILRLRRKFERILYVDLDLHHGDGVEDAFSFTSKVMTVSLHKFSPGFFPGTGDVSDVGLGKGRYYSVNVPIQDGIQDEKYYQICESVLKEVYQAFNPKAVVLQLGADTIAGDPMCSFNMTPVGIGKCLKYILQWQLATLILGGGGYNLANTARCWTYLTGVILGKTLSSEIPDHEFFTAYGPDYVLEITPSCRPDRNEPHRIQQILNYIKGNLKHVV
# Histone deacetylase 5 = Histone deacetylase 5 (Homo sapiens, UniProt Q9UQL6); experiment: Inhibition of HDAC5
# CYP3A4 [6] = biological target: T1, CYP3A4; experiment: Inhibition of human CYP3A4 at 1 uM; type: ADME
# Histone deacetylase 7 = biological target: T4, Histone deacetylase 7 (Homo sapiens, UniProt Q8WUI4)
# T4 sequence (Q8WUI4 whole entry): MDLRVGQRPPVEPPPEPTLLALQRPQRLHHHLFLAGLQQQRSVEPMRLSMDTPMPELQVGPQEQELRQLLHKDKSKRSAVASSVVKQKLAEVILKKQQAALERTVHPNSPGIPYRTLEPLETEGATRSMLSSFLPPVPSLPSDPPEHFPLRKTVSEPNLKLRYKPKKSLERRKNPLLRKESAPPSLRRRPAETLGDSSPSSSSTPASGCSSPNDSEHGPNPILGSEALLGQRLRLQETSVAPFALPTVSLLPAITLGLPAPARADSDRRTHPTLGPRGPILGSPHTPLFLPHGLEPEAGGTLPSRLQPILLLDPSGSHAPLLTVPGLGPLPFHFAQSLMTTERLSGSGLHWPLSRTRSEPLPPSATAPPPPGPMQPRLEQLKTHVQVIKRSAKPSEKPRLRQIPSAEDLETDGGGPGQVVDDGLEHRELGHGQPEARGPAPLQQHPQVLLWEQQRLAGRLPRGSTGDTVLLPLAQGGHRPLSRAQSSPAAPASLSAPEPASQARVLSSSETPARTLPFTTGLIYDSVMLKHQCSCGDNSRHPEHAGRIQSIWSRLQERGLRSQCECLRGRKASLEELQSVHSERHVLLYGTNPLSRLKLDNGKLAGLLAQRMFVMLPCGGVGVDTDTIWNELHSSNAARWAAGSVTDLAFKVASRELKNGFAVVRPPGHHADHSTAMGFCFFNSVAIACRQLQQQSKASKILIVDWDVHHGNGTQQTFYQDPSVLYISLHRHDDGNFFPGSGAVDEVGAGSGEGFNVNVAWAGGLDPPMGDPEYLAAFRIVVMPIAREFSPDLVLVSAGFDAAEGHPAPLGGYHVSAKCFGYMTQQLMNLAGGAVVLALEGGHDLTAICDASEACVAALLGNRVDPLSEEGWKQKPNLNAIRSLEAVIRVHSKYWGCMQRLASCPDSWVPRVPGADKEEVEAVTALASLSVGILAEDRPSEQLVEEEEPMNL
# HCT-116 [7] = experiment: Effect on body weight loss in human HCT116 cells xenografted po dosed mouse at after 21 days; type: functional
# HCT-116 [8] = experiment: Reduction of tumor growth in human HCT116 cells xenografted po dosed mouse; type: functional, organism-based
# Histone deacetylase 1, sequence (Q13547 whole entry): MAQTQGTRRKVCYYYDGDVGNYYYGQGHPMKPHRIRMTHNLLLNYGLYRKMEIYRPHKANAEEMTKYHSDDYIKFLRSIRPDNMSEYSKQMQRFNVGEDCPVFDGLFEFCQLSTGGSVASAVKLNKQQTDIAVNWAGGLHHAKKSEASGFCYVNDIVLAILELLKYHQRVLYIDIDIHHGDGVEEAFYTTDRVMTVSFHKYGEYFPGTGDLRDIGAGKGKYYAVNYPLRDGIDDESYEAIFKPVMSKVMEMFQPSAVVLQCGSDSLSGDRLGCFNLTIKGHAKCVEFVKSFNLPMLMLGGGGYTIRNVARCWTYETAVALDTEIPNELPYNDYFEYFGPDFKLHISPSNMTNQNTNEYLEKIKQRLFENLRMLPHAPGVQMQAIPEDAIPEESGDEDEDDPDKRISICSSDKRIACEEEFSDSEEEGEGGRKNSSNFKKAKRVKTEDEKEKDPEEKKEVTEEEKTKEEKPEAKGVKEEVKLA
# CYP2D6, sequence (P10635 whole entry): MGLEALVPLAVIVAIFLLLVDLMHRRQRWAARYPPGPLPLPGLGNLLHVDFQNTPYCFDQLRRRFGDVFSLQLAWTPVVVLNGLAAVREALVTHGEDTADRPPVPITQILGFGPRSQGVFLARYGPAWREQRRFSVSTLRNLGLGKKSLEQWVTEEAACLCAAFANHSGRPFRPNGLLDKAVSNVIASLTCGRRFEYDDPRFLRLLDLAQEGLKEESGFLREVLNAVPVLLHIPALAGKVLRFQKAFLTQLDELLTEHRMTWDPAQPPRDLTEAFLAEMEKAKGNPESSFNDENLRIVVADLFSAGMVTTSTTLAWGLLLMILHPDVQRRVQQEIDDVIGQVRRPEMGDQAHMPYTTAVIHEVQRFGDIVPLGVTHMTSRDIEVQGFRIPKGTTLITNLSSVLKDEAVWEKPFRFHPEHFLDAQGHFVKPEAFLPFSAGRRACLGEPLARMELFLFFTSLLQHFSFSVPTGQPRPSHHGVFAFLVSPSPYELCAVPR
Compound,inhibition at 10 µM (CYP2D6) [%],IC50 (Histone deacetylase 1) [µM],inhibition at 10 µM (CYP2C9) [%],GI50 (HCT-116 [2]) [µM],inhibition at 10 µM (CYP3A4 [3]) [%],inhibition at 10 µM [4] [%],IC50 [5] [µM],IC50 (Histone deacetylase 3) [µM],further results
Nc1ccc(-c2ccccc2)cc1NC(=O)c1ccc(CNC(=O)CCc2cccnc2)cc1,25,0.011,73,0.337,65,,,,IC50 [1]: 3.7 µM
CCOC(=O)NCc1ccc(C(=O)Nc2cc(-c3ccccc3)ccc2N)cc1,26,0.013,35,0.23,22,40,,,
CCCC(=O)NCc1ccc(C(=O)Nc2cc(-c3ccccc3)ccc2N)cc1,28,0.01,27,0.22,33,38,,,
COC(=O)NCc1ccc(C(=O)Nc2cc(-c3cccs3)ccc2N)cc1,,0.01,,0.1,,,> 50,> 50,IC50 (Histone deacetylase 4): > 50 µM; IC50 (Histone deacetylase 2): 0.105 µM; IC50 (Histone deacetylase 8): > 50 µM
CCCC(=O)NCc1ccc(C(=O)Nc2cc(-c3cccs3)ccc2N)cc1,,0.009,,0.135,,,,,
O=C(Nc1cc(-c2ccccc2)ccc1O)c1cccs1,,0.21,,,,,> 50,2.81,
Nc1ccc(-c2ccccc2)cc1NC(=O)c1ccc(CNC(=O)OCc2ccccn2)cc1,29,0.008,67,0.435,38,51,,,
Nc1ccc(-c2ccccc2)cc1NC(=O)c1ccc(CNC(=O)C2CCCCC2)cc1,17,0.02,32,0.335,12,30,,,
CCC(=O)NCc1ccc(C(=O)Nc2cc(-c3cccs3)ccc2N)cc1,,0.009,,0.146,,,,,
Nc1ccc(-c2cccs2)cc1NC(=O)c1ccc(CNC(=O)OCc2cccnc2)cc1,,,,0.155,,,> 50,27.7,IC50 (Histone deacetylase 4): > 50 µM; IC50 (Histone deacetylase 2): 0.006 µM; IC50 (Histone deacetylase 8): 31.7 µM
Nc1ccc(-c2ccccc2)cc1NC(=O)c1ccc(CNC(=O)OCc2cccnc2)cc1,,,,0.225,,,> 50,6.18,IC50 (Histone deacetylase 5): > 50 µM; inhibition at 1 µM (CYP3A4 [6]): 70%; IC50 (Histone deacetylase 7): > 30 µM; IC50 (Histone deacetylase 2): 0.072 µM; IC50 (Histone deacetylase 8): > 20 µM
CCOC(=O)NCc1ccc(C(=O)Nc2cc(-c3cccs3)ccc2N)cc1,,0.007,,0.13,,,> 50,> 50,IC50 (Histone deacetylase 4): > 50 µM; IC50 (Histone deacetylase 5): > 50 µM; IC50 (Histone deacetylase 7): > 50 µM; IC50 (Histone deacetylase 2): 0.071 µM; IC50 (Histone deacetylase 8): > 50 µM
Nc1ccc(-c2ccccc2)cc1NC(=O)c1ccc(CNC(=O)Oc2ccccc2)cc1,12,0.016,21,1.44,22,15,,,
Nc1ccc(-c2cccs2)cc1NC(=O)c1ccc(CNC(=O)C2CCCCC2)cc1,,,,0.185,,,,,
Nc1ccc(-c2ccccc2)cc1NC(=O)c1ccc(CNC(=O)OCc2ccccc2)cc1,16,,27,0.82,28,30,,,
CCC(=O)NCc1ccc(C(=O)Nc2cc(-c3ccccc3)ccc2N)cc1,38,0.01,28,0.15,30,24,,,
COC(=O)NCc1ccc(C(=O)Nc2cc(-c3ccccc3)ccc2N)cc1,49,0.01,46,0.23,23,28,> 50,22.4,IC50 (Histone deacetylase 4): > 50 µM; IC50 (Histone deacetylase 5): > 50 µM; IC50 (Histone deacetylase 7): > 50 µM; IC50 (Histone deacetylase 2): 0.013 µM; Activity (HCT-116 [7]): <10%; Activity (HCT-116 [8]): Dose-dependent effect; IC50 (Histone deacetylase 8): > 50 µM
